Legend:
human CB2 receptor = target: T1, human CB2 receptor (Homo sapiens, UniProt P34972); assay: Affinity for cannabinoid receptor CB2, [3H]-CP 55,940 displacement on HEK-293EBNA membranes; conditions: 10 μM test substance; 0.33 nM [3H]-CP 55,940; percent inhibition of specific binding
T1 construct: expressed in transfected cells; host or cells: HEK-293EBNA cells (membranes)
Text: VI. Determination of the Affinity for the Cannabinoid Receptor CB2 (CB2 Receptor):
To determine the affinity of the inventive compounds for the cannabinoid receptor, membranes from human recombinant HEK-293EBNA cells were used, which had been transfected stably with the human CB2 receptor. The radioligand used was tritium-labeled 5-(1,1-dimethylheptyl)-2-(5-hydroxypropyl)cyclohexyl)-1-alpha,2-beta,5-alpha)phenol ([3]H—CP 55,940 with 103.4 Ci/mmol, 1 mCi/ml). The determination was effected in a test buffer composed of 50 mM Tris-HCl, 2.5 mM EDTA, 5 mM MgCl2 and 1.0 mg/ml of fatty acid-free BSA. The test substances were each dissolved in DMSO.
The affinity of the inventive compounds for the CB2 receptor is determined by their ability to displace [3]H—CP 55,940 from CB2 receptors in membranes from HEK-293EBNA cells. To this end, in each case 8 μg of the membranes (20 μl of a solution from membranes in a concentration of 400 μg/ml) are incubated in wells on a microtiter plate with a 0.33 nM solution of ^[3]H-CP […] (120 Ci/mmol) in a total volume of test buffer of 200 μl at 30° C. for 90 minutes.
Subsequently, either the test substances or WIN 55212-2 to determine the unspecific binding, in each case dissolved in DMSO, are added to the wells so as to result in each case in a concentration of the corresponding substances of 10 μM.
Incubation at 30° C. is continued for a further 40 minutes. The binding reaction was ended by rapid filtration through GF/C filter paper which had been treated with 0.05% PEI using a Brandel cell harvester with 96 wells. The filters are washed nine times with 0.5 ml of ice-cooled washing buffer ([…] Tris-HCl, 5 mM MgCl2, 2.5 mM EDTA, 2% BSA, pH 7.4), air-dried and placed in scintillation fluid, and the radioactivity is determined with the aid of a scintillation counter.
The percentage displacement of the radioactive ligand ^[3]H-CP 55,940 from its binding to the CB2 receptor is reported as percent inhibition of the specific binding.

vanilloid receptor (VR1) = target: T2, vanilloid receptor (VR1) (Homo sapiens, UniProt Q8NER1); assay: Functional study on vanilloid receptor (VR1), FLIPR Ca2+ assay in VR1-transfected CHO K1 cells; format: cell-based; conditions: test substance 10 μM; CHO K1 cells transfected with VR1; suppression of Ca2+ current after 100 nM capsaicin; read-out: VR1 (human) (% inhibition compared to 10 μM CP)
T2 construct: expressed in transfected cells; host or cells: CHO K1 cells (ECACC)
T2 sequence (Q8NER1 whole entry): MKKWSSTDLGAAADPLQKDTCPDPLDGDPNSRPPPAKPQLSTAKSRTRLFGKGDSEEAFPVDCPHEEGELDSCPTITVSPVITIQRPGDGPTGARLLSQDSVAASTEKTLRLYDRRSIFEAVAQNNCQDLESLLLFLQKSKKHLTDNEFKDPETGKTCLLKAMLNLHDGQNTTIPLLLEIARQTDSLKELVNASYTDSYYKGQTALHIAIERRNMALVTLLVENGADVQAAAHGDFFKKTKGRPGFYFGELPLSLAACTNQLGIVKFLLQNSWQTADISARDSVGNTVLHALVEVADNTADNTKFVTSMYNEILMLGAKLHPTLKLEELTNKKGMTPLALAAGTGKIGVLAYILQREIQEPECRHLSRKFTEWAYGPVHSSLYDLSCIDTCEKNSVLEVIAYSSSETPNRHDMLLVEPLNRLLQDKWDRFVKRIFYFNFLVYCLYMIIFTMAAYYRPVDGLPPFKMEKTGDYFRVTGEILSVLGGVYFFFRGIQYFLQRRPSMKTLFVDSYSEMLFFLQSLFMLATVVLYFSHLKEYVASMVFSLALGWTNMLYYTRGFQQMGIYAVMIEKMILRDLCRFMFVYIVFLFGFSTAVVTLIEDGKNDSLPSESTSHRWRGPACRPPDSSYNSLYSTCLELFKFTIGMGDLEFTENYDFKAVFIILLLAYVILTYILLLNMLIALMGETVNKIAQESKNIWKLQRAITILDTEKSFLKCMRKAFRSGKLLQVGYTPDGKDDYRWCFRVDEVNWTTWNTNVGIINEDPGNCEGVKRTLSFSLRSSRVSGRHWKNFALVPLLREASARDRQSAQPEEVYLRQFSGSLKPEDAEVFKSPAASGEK
Text: II. Functional Studies on the Vanilloid Receptor (VR1)
The agonistic or antagonistic action of the substances to be tested on vanilloid receptor (VR1) can also be determined with the assay which follows. In this assay, the Ca^2+ current through the channel is quantified with the aid of a Ca^2+-sensitive dye (Fluo-4 type, Molecular Probes, Europe BV, Leiden, the Netherlands) in a fluorescent imaging plate reader (FLIPR, Molecular Devices, Sunnyvale, USA).
Chinese hamster ovary cells (CHO K1 cells, European Collection of Cell Cultures (ECACC) Great Britain) are transfected stably with the VR1 gene. For functional studies, these cells are plated out onto poly-D-lysine-coated black 96-well plates with a clear bottom (BD Biosciences, Heidelberg, Germany) in a density of 25 000 cells/well. The cells are incubated overnight at 37° C. and 5% CO2 in a culture medium (Ham's Nutrient Mixture F12, 10% by volume of FCS (fetal calf serum), 18 μg/ml of L-proline). The next day, the cells are incubated with Fluo-4 (Fluo-4 2 μM, Pluronic F127 0.01% by volume, Molecular Probes in HBSS (Hank's buffered saline solution), Gibco Invitrogen GmbH, Karlsruhe, Germany) at 37° C. for 30 minutes. Subsequently, the plates are washed 3 times with HBSS buffer and, after a further incubation of 15 minutes at room temperature, used for Ca^2+ measurement in FLIPR. The Ca^2+-dependent fluorescence is measured before and after addition of the substances to be studied (wavelength λex=488 nm, λem=540 nm). The quantification is effected by measuring the highest fluorescence intensity (FC, fluorescence counts) over the time.
The FLIPR protocol consists of 2 substance additions. First, the substances to be tested (10 μM) are pipetted onto the cells and the Ca^2+ current is compared with the control (capsaicin 10 μM) (% activation based on the Ca^2+ signal after addition of 10 μM capsaicin). After incubation for 5 minutes, 100 nM capsaicin is applied and the current of Ca^2+ is likewise determined.
Desensitizing agonists and antagonists led to a suppression of the Ca^2+ current. % inhibition is calculated compared to the maximum achievable inhibition with 10 μM capsazepine.

[1] = target: T3, vanilloid receptor 1 (VR1/TRPV1) (Rattus norvegicus, UniProt O35433); assay: Functional study on vanilloid receptor 1 (VR1/TRPV1), FLIPR Ca2+ assay in rat dorsal root ganglia cells; format: cell-based; conditions: test compound 10 μM, rat DRG cells; for inhibition at 10 µM: suppression of Ca2+ current after 100 nM capsaicin, read-out: VR1 (rat) (% inhibition compared to 10 μM CP)
T3 construct: The spinal column is removed from beheaded rats; from tissue; host or cells: primary cells from rat dorsal root ganglia
T3 sequence (O35433 whole entry): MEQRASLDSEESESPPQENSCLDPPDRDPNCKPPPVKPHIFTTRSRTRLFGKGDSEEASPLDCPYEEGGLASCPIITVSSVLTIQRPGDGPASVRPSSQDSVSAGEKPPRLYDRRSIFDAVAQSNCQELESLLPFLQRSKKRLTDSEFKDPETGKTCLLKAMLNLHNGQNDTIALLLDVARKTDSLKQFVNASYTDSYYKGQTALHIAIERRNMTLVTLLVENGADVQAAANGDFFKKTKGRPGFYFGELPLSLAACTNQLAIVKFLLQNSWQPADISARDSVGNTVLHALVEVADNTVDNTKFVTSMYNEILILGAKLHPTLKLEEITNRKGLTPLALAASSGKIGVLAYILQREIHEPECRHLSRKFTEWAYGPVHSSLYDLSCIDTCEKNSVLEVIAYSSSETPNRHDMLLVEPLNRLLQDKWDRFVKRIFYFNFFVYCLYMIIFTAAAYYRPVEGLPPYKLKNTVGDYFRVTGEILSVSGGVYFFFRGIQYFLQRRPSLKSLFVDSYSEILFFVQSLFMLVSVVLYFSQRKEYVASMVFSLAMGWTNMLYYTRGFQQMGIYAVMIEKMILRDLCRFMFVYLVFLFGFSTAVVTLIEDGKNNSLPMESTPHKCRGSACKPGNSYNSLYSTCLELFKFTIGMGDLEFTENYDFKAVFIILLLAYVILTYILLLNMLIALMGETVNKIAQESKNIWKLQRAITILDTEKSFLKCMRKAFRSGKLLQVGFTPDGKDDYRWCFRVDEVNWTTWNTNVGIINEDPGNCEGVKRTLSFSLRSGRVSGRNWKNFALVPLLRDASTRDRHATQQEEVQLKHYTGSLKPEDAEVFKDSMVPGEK
Method: Preference may likewise be given to inventive compounds which, in the FLIPR assay, in a concentration of 10 μM, have an inhibition of the Ca^2+ ion current in dorsal root ganglia of rats of at least 10%, preferably of at least 30%, more preferably of at least 50%, even more preferably of at least 70%, even more preferably of at least 90%, compared to the maximum achievable inhibition of the Ca^2+ ion current with […] in a concentration of 10 μM.
In the FLIPR assay, the Ca^2+ current is quantified with the aid of a Ca^2+-sensitive dye (Fluo-4 type, Molecular Probes Europe BV, Leiden, the Netherlands) in the fluorescent imaging plate reader (FLIPR, Molecular Devices, Sunnyvale, USA), as described below.
I. Functional Study on the Vanilloid Receptor 1 (VR1/TRPV1 Receptor)
The agonistic or antagonistic action of the substances to be studied on the vanilloid receptor 1 (VR1/TRPV1) of the rat species can be determined with the following assay. In this assay, the Ca^2+ current through the receptor channel is quantified with the aid of a Ca^2+-sensitive dye (Fluo-4 type, Molecular Probes Europe BV, Leiden the Netherlands) in a fluorescent imaging plate reader (FLIPR, Molecular Devices, Sunnyvale, USA).
Cell culture plate: poly-D-lysine-coated, black 96-hole plates with a clear bottom (96 well black/clear plate, BD Biosciences, Heidelberg, Germany) are additionally coated with laminin (Gibco Invitrogen GmbH, Karlsruhe, Germany) by diluting laminin to a concentration of 100 μg/ml with PBS (Ca—Mg-free PBS, Gibco Invitrogen GmbH, Karlsruhe, Germany). Aliquots having a concentration of 100 μg/ml of laminin are withdrawn and stored at −20° C. The aliquots are diluted with PBS in a ratio of 1:10 to 10 μg/ml of laminin and in each case 50 μl of the solution are pipetted into a well of the cell culture plate. The cell culture plates are incubated at 37° C. for at least two hours, the supernatant solution is removed by suction and the wells are each washed twice with PBS. The coated cell culture plates are stored with supernatant PBS which is not removed until directly before the application of the cells.
The spinal column is removed from beheaded rats and placed directly into cold HBSS buffer (Hank's buffered saline solution, Gibco Invitrogen GmbH, Karlsruhe, Germany), i.e. placed in an ice bath, which has been admixed with 1% by volume of an AA solution (antibiotic/antimycotic solution, PAA, Pasching, Austria). The spinal column is severed longitudinally and removed from the spinal canal together with fasciae. Subsequently, the dorsal root ganglia (DRGs) are removed and in turn stored in cold HBSS buffer admixed with 1% by volume of an AA solution. The DRGs freed completely of blood residues and spinal nerves are in each case transferred to 500 μl of cold type 2 collagenase (PAA, Pasching, Austria) and incubated at 37° C. for 35 minutes. After addition of 2.5% by volume of trypsin (PAA, Pasching, Austria), incubation is continued at 37° C. for a further 10 minutes. After complete incubation, the enzyme solution is cautiously pipetted off and the remaining DRGs are each admixed with 500 μl of complete medium.
The DRGs are each suspended repeatedly, drawn through cannulas No. 1, No. 12 and No. 16 by means of a syringe and transferred to 50 ml Falcon tubes which are made up to 15 ml with complete medium. The contents of each Falcon tube are in each case filtered through a 70 μm Falcon filter insert and centrifuged at 1200 revolutions and room temperature for 10 minutes. The resulting pellet is in each case taken up in 250 μl of complete medium and the cell count is determined.
The number of cells in the suspension is adjusted to 3 times 10^5 per ml and in each case 150 μl of this suspension are added to one well of the cell culture plates coated as described above. In the incubator, the plates are left to stand at 37° C., 5% by volume of CO2 and 95% relative air humidity for two to three days. […]

T1 sequence (P34972 whole entry): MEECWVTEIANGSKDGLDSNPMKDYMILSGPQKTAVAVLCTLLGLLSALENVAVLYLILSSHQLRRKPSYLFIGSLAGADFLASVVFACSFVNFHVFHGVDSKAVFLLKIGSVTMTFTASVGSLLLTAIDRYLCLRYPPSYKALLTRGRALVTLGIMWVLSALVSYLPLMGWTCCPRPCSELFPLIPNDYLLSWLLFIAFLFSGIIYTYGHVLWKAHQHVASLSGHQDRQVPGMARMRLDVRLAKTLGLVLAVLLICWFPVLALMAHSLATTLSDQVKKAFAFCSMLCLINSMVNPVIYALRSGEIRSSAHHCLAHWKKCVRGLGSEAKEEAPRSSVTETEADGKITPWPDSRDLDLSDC

SMILES | inhibition at 10 µM (human CB2 receptor) | inhibition at 10 µM (vanilloid receptor (VR1)) | inhibition at 10 µM [1] | VR1 (rat) (% stimulation compared to 10 μM CP) ([1]; Ca2+ signal relative to 10 μM capsaicin (CP))
CCCCCNC(=O)OCC1CCSc2ccccc2C1=O (stereo not drawn) [Example Compound 1, Pentylcarbamic acid 5-oxo-2,3,4,5-tetrahydrobenzo[b]thiepin-4-ylmethyl ester] | 42.2% |  |  | 
O=C(Nc1ccc(Br)cc1)OCC1CCSc2ccccc2C1=O (stereo not drawn) [Example Compound 5, (4-Bromophenyl)carbamic acid 5-oxo-2,3,4,5-tetrahydrobenzo[b]thiepin-4-ylmethyl ester] | 36.2% | 53.8% |  | 
O=C(NC1CCCCC1)OCC1(CO)CCSc2ccccc2C1=O (stereo not drawn) [Example Compound 6, Cyclohexylcarbamic acid 4-hydroxymethyl-5-oxo-2,3,4,5-tetrahydro-benzo[b]thiepin-4-ylmethyl ester] | 53.6% | 26.7% |  | 
O=C1c2ccccc2SCCC1(CO)COC(=S)Nc1ccccc1 (stereo not drawn) [Example Compound 9, Phenylthiocarbamic acid O-(4-hydroxymethyl-5-oxo-2,3,4,5-tetrahydro-benzo[b]thiepin-4-ylmethyl)ester] | 28.3% | 51.3% | 52.8% | 
CCCCCNC(=O)OCC1(COC(=O)NCCCCC)CCSc2ccccc2C1=O [Example Compound 14, pentylcarbamic acid 4-(pentylcarbamoyloxymethyl)-5-oxo-2,3,4,5-tetrahydrobenzo[b]thiepin-4-ylmethyl ester] | 61.8% |  |  | 

Other lines, results leading:

inhibition at 10 µM (human CB2 receptor) | inhibition at 10 µM (vanilloid receptor (VR1)) | inhibition at 10 µM [1] | VR1 (rat) (% stimulation compared to 10 μM CP) ([1]; Ca2+ signal relative to 10 μM capsaicin (CP)) | SMILES
63.4% |  |  |  | O=C(Nc1ccc(F)cc1F)OCC1(COC(=O)Nc2ccc(F)cc2F)CCOc2ccccc2C1=O [Example Compound 16, 2,4-Difluorophenylcarbamic acid 4-(2,4-difluorophenylcarbamoyloxymethyl)-5-oxo-2,3,4,5-tetrahydrobenzo[b]oxepin-4-ylmethyl ester]
3.8% | 17.1% | 46.6% |  | O=C1c2ccccc2SCCC1(CO)COC(=S)Nc1cccc(C(F)(F)F)c1 (stereo not drawn) [Example Compound 17, (3-Trifluoromethylphenyl)thiocarbamic acid O-(4-hydroxymethyl-5-oxo-2,3,4,5-tetrahydrobenzo[b]thiepin-4-ylmethyl)ester]
15.6% | 31.5% | 52.1% |  | O=C1c2ccccc2OCCC1(CO)COC(=S)Nc1cccc(C(F)(F)F)c1 (stereo not drawn) [Example Compound 18, (3-Trifluoromethylphenyl)thiocarbamic acid O-(4-hydroxymethyl-5-oxo-2,3,4,5-tetrahydrobenzo[b]oxepin-4-ylmethyl)ester]
40.3% | 13.3% | 32.2% |  | O=C(NC(=O)c1ccccc1)OCC1(COC(=O)NC(=O)c2ccccc2)CCOc2ccccc2C1=O [Example Compound 19, Benzoylcarbamic acid 4-benzoylcarbamoyloxymethyl-5-oxo-2,3,4,5-tetrahydro-benzo[b]oxepin-4-ylmethyl ester]
41% | 21.8% | 17.1% |  | O=C(Nc1ccc(F)cc1F)OCC1(CO)CCSc2ccccc2C1=O (stereo not drawn) [Example Compound 20, (2,4-Difluorophenyl)carbamic acid 4-hydroxymethyl-5-oxo-2,3,4,5-tetrahydro-benzo[b]thiepin-4-ylmethyl ester]
 | 36.3% | 34.6% |  | O=C1c2ccccc2SCCC1(CO)COC(=S)Nc1ccc(F)cc1F (stereo not drawn) [Example Compound 21, (2,4-Difluorophenyl)thiocarbamic acid O-(4-hydroxymethyl-5-oxo-2,3,4,5-tetrahydrobenzo[b]thiepin-4-ylmethyl)ester]
 | 67.5% | 59.7% | 77.9% | O=C1c2ccccc2CCCC1(CO)COC(=S)Nc1cccc(C(F)(F)F)c1 (stereo not drawn) [Example Compound 22, (3-Trifluoromethylphenyl)thiocarbamic acid O-(6-hydroxymethyl-5-oxo-6,7,8,9-tetrahydro-5H-benzocyclohepten-6-ylmethyl)ester]

— patent publication US7858613B2, “Substituted benzo-condensed cycloheptanone derivatives and their use for producing drugs” (Gruenenthal GmbH, priority 2005, dated 2010)
